This note sets out measurements from patent publication US20250171438A1 (Agios Pharmaceuticals, Inc., priority 2022, published 2025).

The experiment has as its target T1, human PAH with the R408W mutation (Homo sapiens, UniProt P00439, R408W).
T1 construct: expressed in transfected cells
T1 sequence (P00439 1-452 R408W): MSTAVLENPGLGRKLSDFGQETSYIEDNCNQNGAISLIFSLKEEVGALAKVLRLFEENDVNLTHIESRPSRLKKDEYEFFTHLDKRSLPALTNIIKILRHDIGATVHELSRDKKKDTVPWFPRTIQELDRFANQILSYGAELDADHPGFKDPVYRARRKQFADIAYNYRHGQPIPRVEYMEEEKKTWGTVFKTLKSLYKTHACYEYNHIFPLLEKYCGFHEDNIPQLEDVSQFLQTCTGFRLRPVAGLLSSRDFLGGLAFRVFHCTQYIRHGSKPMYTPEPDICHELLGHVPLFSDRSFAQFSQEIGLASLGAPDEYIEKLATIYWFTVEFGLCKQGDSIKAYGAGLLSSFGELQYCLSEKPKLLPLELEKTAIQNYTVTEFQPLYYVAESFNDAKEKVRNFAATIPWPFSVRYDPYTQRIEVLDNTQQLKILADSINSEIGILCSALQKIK
Kind of experiment: Cell Based Phenylalanine Flux Assay. Particulars: A375 cells expressing human R408W PAH; 24 hrs compound incubation; 13C-Tyrosine by LC-MS; average where tested multiple times; read-out: AC50.

Procedure: Compounds were resuspended in DMSO, and 2-fold serial dilutions were performed to generate a 10-point dose curve. Compounds were added to plated cells in a total volume of 100 pal, and a final DMSO concentration of 0.5%. Each compound was tested in duplicate. Following compound addition, cells were placed in a 5% CO2, 37° C. tissue culture incubator for 24 hrs. After the incubation period, 20 μM sepiapterin and 800 μM 13C9,15N-Phenylalanine were added. After 4 hours, cell media was removed. An aliquot of 10 μl of cell media was combined with 200 μl of extraction buffer (80% acetonitrile/20% H2O) for each well. Determination of ^13C-Tyrosine concentration was assessed by liquid chromatography mass spectrometry.
Where a compound was tested multiple times, the average value of the tests is reported.

With `CC1(c2nc(C(F)F)c(C(=O)N3CCc4[nH]cnc4[C@@H]3c3nc4ccccc4s3)o2)CC1` [Example 1852, (R)-(4-(benzo[d]thiazol-2-yl)-6,7-dihydro-1H-imidazo[4,5-c]pyridin-5(4H)-yl)(4-(difluoromethyl)-2-(1-methylcyclopropyl)oxazol-5-yl)methanone], the AC50 is below 0.5 µM.

With `Cn1nc(C2CCC2)cc1C(=O)N1CCc2[nH]cnc2[C@H]1c1nc2c(F)cccc2s1` [Example 1853], the AC50 is 1 to 5 µM.

With `Cn1nc(C2CCC2)cc1C(=O)N1CCc2[nH]cnc2[C@@H]1c1nc2c(F)cccc2s1` [Example 1854, (R)-(3-cyclobutyl-1-methyl-1H-pyrazol-5-yl)(4-(4-fluorobenzo[d]thiazol-2-yl)-6,7-dihydro-1H-imidazo[4,5-c]pyridin-5(4H)-yl)methanone], the AC50 fell in the range of 1 to 5 µM.

In the case of `O=C(c1ccnn1-c1ccccn1)N1CCc2[nH]cnc2[C@H]1c1nc2ccccc2s1` [Example 1855], the AC50 was below 0.5 µM.

On to `O=C(c1cn[nH]c1C(F)F)N1CCc2[nH]cnc2[C@H]1c1nc2ccccc2s1` [Example 1857], for which the AC50 was below 0.5 µM.

Regarding `O=C(c1cn[nH]c1C(F)F)N1CCc2[nH]cnc2[C@@H]1c1nc2ccccc2s1` [Example 1858, (R)-(4-(benzo[d]thiazol-2-yl)-6,7-dihydro-1H-imidazo[4,5-c]pyridin-5(4H)-yl)(5-(difluoromethyl)-1H-pyrazol-4-yl)methanone], the AC50 lay in the range of 1 to 5 µM.

Turning to `O=C(c1cn[nH]c1C(F)F)N1CCc2[nH]cnc2[C@H]1c1nc2c(F)cccc2s1` [Example 1859], the AC50 was below 0.5 µM.

As to `O=C(c1cn[nH]c1C(F)F)N1CCc2[nH]cnc2[C@@H]1c1nc2c(F)cccc2s1` [Example 1860, (R)-(5-(difluoromethyl)-1H-pyrazol-4-yl)(4-(4-fluorobenzo[d]thiazol-2-yl)-6,7-dihydro-1H-imidazo[4,5-c]pyridin-5(4H)-yl)methanone], the AC50 is 1 to 5 µM.

On to `O=C(c1cn[nH]c1Cl)N1CCc2[nH]cnc2[C@@H]1c1nc2c(F)cccc2s1` [Example 1861, (R)-(5-chloro-1H-pyrazol-4-yl)(4-(4-fluorobenzo[d]thiazol-2-yl)-6,7-dihydro-1H-imidazo[4,5-c]pyridin-5(4H)-yl)methanone], for which the AC50 lay within 1 to 5 µM.

In the case of `O=C(c1cn[nH]c1Cl)N1CCc2[nH]cnc2[C@H]1c1nc2c(F)cccc2s1` [Example 1862], the AC50 is 0.5 to 1 µM.

On to `O=C(c1nnc(-c2cn[nH]c2)o1)N1CCc2[nH]cnc2[C@H]1c1nc2c(F)cccc2s1` [Example 1863], for which the AC50 lay in the range of 0.5 to 1 µM.

Consider `O=C(c1nnc(-c2cn[nH]c2)o1)N1CCc2[nH]cnc2[C@@H]1c1nc2c(F)cccc2s1` [Example 1864, (R)-(5-(1H-pyrazol-4-yl)-1,3,4-oxadiazol-2-yl)(4-(4-fluorobenzo[d]thiazol-2-yl)-6,7-dihydro-1H-imidazo[4,5-c]pyridin-5(4H)-yl)methanone], for which the AC50 fell in the range of 1 to 5 µM.

In the case of `COCc1ccc2c(C(=O)N3CCc4[nH]cnc4[C@@H]3c3nc4ccccc4s3)c(C#N)nn2c1` [Example 1865, (R)-3-(4-(benzo[d]thiazol-2-yl)-4,5,6,7-tetrahydro-1H-imidazo[4,5-c]pyridine-5-carbonyl)-6-(methoxymethyl)pyrazolo[1,5-a]pyridine-2-carbonitrile], the AC50 is above 5 µM.

Take `COCc1ccc2c(C(=O)N3CCc4[nH]cnc4[C@H]3c3nc4ccccc4s3)c(C#N)nn2c1` [Example 1866, (S)-3-(4-(benzo[d]thiazol-2-yl)-4,5,6,7-tetrahydro-1H-imidazo[4,5-c]pyridine-5-carbonyl)-6-(methoxymethyl)pyrazolo[1,5-a]pyridine-2-carbonitrile]: the AC50 is below 0.5 µM.

For `COCCc1ccc2c(C(=O)N3CCc4[nH]cnc4[C@H]3c3nc4ccccc4s3)c(C#N)nn2c1` [Example 1867, (S)-3-(4-(benzo[d]thiazol-2-yl)-4,5,6,7-tetrahydro-1H-imidazo[4,5-c]pyridine-5-carbonyl)-6-(2-methoxyethyl)pyrazolo[1,5-a]pyridine-2-carbonitrile], the AC50 was below 0.5 µM.

With `COCCc1ccc2c(C(=O)N3CCc4[nH]cnc4[C@@H]3c3nc4ccccc4s3)c(C#N)nn2c1` [Example 1868, (R)-3-(4-(benzo[d]thiazol-2-yl)-4,5,6,7-tetrahydro-1H-imidazo[4,5-c]pyridine-5-carbonyl)-6-(2-methoxyethyl)pyrazolo[1,5-a]pyridine-2-carbonitrile], the AC50 lay in the range of 1 to 5 µM.

Turning to `Cn1cc(C(=O)N2CCc3[nH]cnc3[C@@H]2c2nc3ccccc3s2)c(Cl)n1` [Example 1869, (R)-(4-(benzo[d]thiazol-2-yl)-6,7-dihydro-1H-imidazo[4,5-c]pyridin-5(4H)-yl)(3-chloro-1-methyl-1H-pyrazol-4-yl)methanone], the AC50 was above 5 µM.

Regarding `Cn1cc(C(=O)N2CCc3[nH]cnc3[C@H]2c2nc3ccccc3s2)c(Cl)n1` [Example 1870], the AC50 is below 0.5 µM.

Turning to `O=C(c1nnc(-c2cnn(CC(F)F)c2)o1)N1CCc2[nH]cnc2[C@H]1c1nc2ccccc2s1` [Example 1871], the AC50 is below 0.5 µM.

As for `O=C(c1nnc(-c2cnn(CC(F)F)c2)o1)N1CCc2[nH]cnc2[C@@H]1c1nc2ccccc2s1` [Example 1872, (R)-(4-(benzo[d]thiazol-2-yl)-6,7-dihydro-1H-imidazo[4,5-c]pyridin-5(4H)-yl)(5-(1-(2,2-difluoroethyl)-1H-pyrazol-4-yl)-1,3,4-oxadiazol-2-yl)methanone], the AC50 was 1 to 5 µM.

For `O=C(c1nnc(-c2ccn(C(F)F)n2)o1)N1CCc2[nH]cnc2[C@H]1c1nc2ccccc2s1` [Example 1873], the AC50 is below 0.5 µM.

As to `O=C(c1nnc(-c2ccn(C(F)F)n2)o1)N1CCc2[nH]cnc2[C@@H]1c1nc2ccccc2s1` [Example 1874, (R)-(4-(benzo[d]thiazol-2-yl)-6,7-dihydro-1H-imidazo[4,5-c]pyridin-5(4H)-yl)(5-(1-(difluoromethyl)-1H-pyrazol-3-yl)-1,3,4-oxadiazol-2-yl)methanone], the AC50 lay within 1 to 5 µM.

For `O=C(c1nnc(-c2ccc(F)cc2F)o1)N1CCc2[nH]cnc2[C@@H]1c1nc2c(F)cccc2s1` [Example 1875, (R)-(5-(2,4-difluorophenyl)-1,3,4-oxadiazol-2-yl)(4-(4-fluorobenzo[d]thiazol-2-yl)-6,7-dihydro-1H-imidazo[4,5-c]pyridin-5(4H)-yl)methanone], the AC50 lay within 1 to 5 µM.

As to `O=C(c1nnc(-c2ccc(F)cc2F)o1)N1CCc2[nH]cnc2[C@H]1c1nc2c(F)cccc2s1` [Example 1876, (S)-(5-(2,4-difluorophenyl)-1,3,4-oxadiazol-2-yl)(4-(4-fluorobenzo[d]thiazol-2-yl)-6,7-dihydro-1H-imidazo[4,5-c]pyridin-5(4H)-yl)methanone], the AC50 was below 0.5 µM.

Consider `O=C(c1nnc(-c2ccc(F)c(F)c2)o1)N1CCc2[nH]cnc2[C@@H]1c1nc2c(F)cccc2s1` [Example 1877, (R)-(5-(3,4-difluorophenyl)-1,3,4-oxadiazol-2-yl)(4-(4-fluorobenzo[d]thiazol-2-yl)-6,7-dihydro-1H-imidazo[4,5-c]pyridin-5(4H)-yl)methanone], for which the AC50 lay in the range of 1 to 5 µM.

For `O=C(c1nnc(-c2ccc(F)c(F)c2)o1)N1CCc2[nH]cnc2[C@H]1c1nc2c(F)cccc2s1` [Example 1878, (S)-(5-(3,4-difluorophenyl)-1,3,4-oxadiazol-2-yl)(4-(4-fluorobenzo[d]thiazol-2-yl)-6,7-dihydro-1H-imidazo[4,5-c]pyridin-5(4H)-yl)methanone], the AC50 was below 0.5 µM.

`Cc1ccc(-c2nnc(C(=O)N3CCc4[nH]cnc4[C@@H]3c3nc4ccccc4s3)o2)nc1` [Example 1879, (R)-(4-(benzo[d]thiazol-2-yl)-6,7-dihydro-1H-imidazo[4,5-c]pyridin-5(4H)-yl)(5-(5-methylpyridin-2-yl)-1,3,4-oxadiazol-2-yl)methanone]: the AC50 was in the range of 1 to 5 µM.

Regarding `Cc1ccc(-c2nnc(C(=O)N3CCc4[nH]cnc4[C@H]3c3nc4ccccc4s3)o2)nc1` [Example 1880], the AC50 is below 0.5 µM.

As to `O=C(c1nnc(-c2cnn(CC(F)F)c2)o1)N1CCc2[nH]cnc2[C@@H]1c1nc2c(F)cccc2s1` [Example 1881, (R)-(5-(1-(2,2-difluoroethyl)-1H-pyrazol-4-yl)-1,3,4-oxadiazol-2-yl)(4-(4-fluorobenzo[d]thiazol-2-yl)-6,7-dihydro-1H-imidazo[4,5-c]pyridin-5(4H)-yl)methanone], the AC50 lay within 1 to 5 µM.

Turning to `O=C(c1nnc(-c2cnn(CC(F)F)c2)o1)N1CCc2[nH]cnc2[C@H]1c1nc2c(F)cccc2s1` [Example 1882, (S)-(5-(1-(2,2-difluoroethyl)-1H-pyrazol-4-yl)-1,3,4-oxadiazol-2-yl)(4-(4-fluorobenzo[d]thiazol-2-yl)-6,7-dihydro-1H-imidazo[4,5-c]pyridin-5(4H)-yl)methanone], the AC50 is below 0.5 µM.

As to `Cn1cc(-c2nnc(C(=O)N3CCc4[nH]cnc4[C@H]3c3nc4ccccc4s3)o2)c(C(F)(F)F)n1` [Example 1883], the AC50 was below 0.5 µM.

For the compound `Cn1cc(-c2nnc(C(=O)N3CCc4[nH]cnc4[C@@H]3c3nc4ccccc4s3)o2)c(C(F)(F)F)n1` [Example 1884, (R)-(4-(benzo[d]thiazol-2-yl)-6,7-dihydro-1H-imidazo[4,5-c]pyridin-5(4H)-yl)(5-(1-methyl-3-(trifluoromethyl)-1H-pyrazol-4-yl)-1,3,4-oxadiazol-2-yl)methanone], the AC50 fell in the range of 1 to 5 µM.

What is called AC50 is the concentration at which the activity in the assay is half-maximal.
